In US20250186436A1 (4E Therapeutics, Inc., priority 2021, published 2025):
“And” between values parts separate entries of the source, which are not always exact repeats. Equal values may be shown once. Read-outs that look alike come from different tables or passages of the source.

Assays:
[1] = PK study in male Sprague-Dawley rats dosed once per day for five days, PO 10 mg/kg, 0.5% HPMC (Example 7); type: in vivo; details: 0.5% HPMC suspension
Protocol: Example 7. PK study of 4ET-03-053 in male Sprague-Dawley rats dosed once per day for five days (P0; 10 mg/kg; 0.5%0HPMC aqueous suspension)
Table 21 provides plasma and brain concentrations at 24 hr after the last dose of five daily P0 doses of 4ET-03-053.

[2] = PK study in male Sprague-Dawley rats dosed once per day for five days, PO 1 mg/kg, 0.5% HPMC (Example 6); type: in vivo; details: Sprague-Dawley rats, 0.5% HPMC suspension
Protocol: Example 6: PK study of 4ET-03-053 in male Sprague-Dawley rats dosed once per day for five days (P0; 1 mg/kg; 0.500HPMC aqueous suspension)
Table 18 provides plasma and brain concentrations of 4ET-03-0053 at 24 hr after the last dose of five daily P0 doses.

[3] = Sprague-Dawley rats, day five of daily PO 10 mg/kg, individual animals, 10 mg/kg
[4] = Sprague-Dawley rats, day five of daily PO 10 mg/kg, mean (n = 3)
[5] = male Sprague-Dawley rats, single PO 10 mg/kg dose, individual animals, 10 mg/kg
[6] = male Sprague-Dawley rats, single PO 10 mg/kg dose, mean (n = 3)
[7] = male, Sprague-Dawley, rat, in vivo, po, 10 mg/kg, Sprague-Dawley rats, day five of daily PO 10 mg/kg, individual animals
[8] = male, Sprague-Dawley, rat, in vivo, po, 10 mg/kg, Sprague-Dawley rats, day five of daily PO 10 mg/kg, mean (n = 3)
[9] = male, Sprague-Dawley, rat, in vivo, po, 10 mg/kg, male Sprague-Dawley rats, single PO 10 mg/kg dose, individual animals
[10] = male, Sprague-Dawley, rat, in vivo, po, 10 mg/kg, male Sprague-Dawley rats, single PO 10 mg/kg dose, mean (n = 3)
[11] = day 5 of daily PO 1 mg/kg, individual animals, 1 mg/kg

In the case of `Cc1cc(Nc2cc(N)ncn2)c(=O)n2c1C(=O)NC21CCC2(CC2)CC1` [4ET-03-053, 6″-((6-Aminopyrimidin-4-yl)amino)-8″-methyl-2″H-dispiro[cyclopropane-1,1′-cyclohexane-4′,3″-imidazo[1,5-a]pyridine]-1″,5″-dione], the AUCinf [1, 3] is reported as 318.204 µg·h/mL and 347.92 µg·h/mL, the AUCinf/D [1, 3] is reported as 25862 kg·h/kL and 31820 kg·h/kL and 34792 kg·h/kL and the AUClast [1, 3] is reported as 291.659 µg·h/mL and 320.41 µg·h/mL. For the same compound, the Clast [1, 3] was 2390 ng/mL and 2740 ng/mL, the Cmax [1, 3] was 18800 ng/mL and the Cmax/D [1, 3] was 2460 kg/kL and 1880 kg/kL and 2510 kg/kL. For the same compound, the F [1, 3] was 50.2% and 61.8% and 67.6%, the MRTinf [1, 3] was 9.17 h and 9.18 h and the t1/2 [1, 3] was 7.19 h and 6.73 h. It also gave an AUCinf/D [1, 4] of 30825 kg·h/kL, a Cmax/D [1, 4] of 2283 kg/kL and an F [1, 4] of 59.9%. For the same compound, the “time to peak plasma concentration” value ([1]; Sprague-Dawley rats, following five daily PO doses of 10 mg/kg) was at most 2 h, the AUCinf [1, 5] was 308.776 µg·h/mL and 251.304 µg·h/mL and the AUCinf/D [1, 5] was 25525 kg·h/kL and 30878 kg·h/kL and 25130 kg·h/kL. The AUClast [1, 5] was 296.855 µg·h/mL and 240.643 µg·h/mL, the Clast [1, 5] was 1120 ng/mL and 1560 ng/mL and the Cmax [1, 5] was 19900 ng/mL and 21800 ng/mL. For the same compound, the Cmax/D [1, 5] was 2510 kg/kL and 1990 kg/kL and 2180 kg/kL, the F [1, 5] was 49.6% and 60.0% and 48.8% and the MRTinf [1, 5] was 7.59 h and 7.51 h. The AUCinf/D [1, 6] was 27178 kg·h/kL, the Cmax/D [1, 6] was 2227 kg/kL and the F [1, 6] was 52.8%. It also gave an AUC(0-t) [1, 7] of 234 µg·h/mL, an MRT inf [1, 7] of 9.79 h and a Tmax [1, 7] of 2 h. It also gave an AUC(0-inf) ([1]; male, Sprague-Dawley, rat, in vivo, po, 10 mg/kg, Sprague-Dawley rats, day five of daily PO 10 mg/kg, individual animals, read-out: AUCinf) of 259 µg·h/mL, a concentration at 24 h ([1]; male, Sprague-Dawley, rat, in vivo, po, 10 mg/kg, Sprague-Dawley rats, day five of daily PO 10 mg/kg, individual animals, read-out: Clast) of 2880 ng/mL and a Cmax ([1]; male, Sprague-Dawley, rat, in vivo, po, 10 mg/kg, Sprague-Dawley rats, day five of daily PO 10 mg/kg, individual animals, read-out: Cmax) of 24600 ng/mL. For the same compound, the half-life ([1]; male, Sprague-Dawley, rat, in vivo, po, 10 mg/kg, Sprague-Dawley rats, day five of daily PO 10 mg/kg, individual animals, read-out: t1/2 (converted)) was 392 min, the AUC(0-t) [1, 8] was 282 µg·h/mL and the MRT inf [1, 8] was 9.38 h. For the same compound, the Tmax [1, 8] was 1.67 h, the AUC(0-inf) ([1]; male, Sprague-Dawley, rat, in vivo, po, 10 mg/kg, Sprague-Dawley rats, day five of daily PO 10 mg/kg, mean (n = 3), read-out: AUCinf) was 308 µg·h/mL and the concentration at 24 h ([1]; male, Sprague-Dawley, rat, in vivo, po, 10 mg/kg, Sprague-Dawley rats, day five of daily PO 10 mg/kg, mean (n = 3), read-out: Clast) was 2670 ng/mL. The Cmax ([1]; male, Sprague-Dawley, rat, in vivo, po, 10 mg/kg, Sprague-Dawley rats, day five of daily PO 10 mg/kg, mean (n = 3), read-out: Cmax) was 22800 ng/mL, the half-life ([1]; male, Sprague-Dawley, rat, in vivo, po, 10 mg/kg, Sprague-Dawley rats, day five of daily PO 10 mg/kg, mean (n = 3), read-out: t1/2 (converted)) was 409 min and the bioavailability ([1]; male, Sprague-Dawley, rat, in vivo, po, 10 mg/kg, Sprague-Dawley rats, following five daily PO doses of 10 mg/kg) was 59.9%. The concentration at 24 h ([1]; male, Sprague-Dawley, rat, in vivo, po, 10 mg/kg, Sprague-Dawley rats, following five daily PO doses of 10 mg/kg, at 24 hr, read-out: last measurable concentration) was 2670 ng/mL, the Cmax ([1]; male, Sprague-Dawley, rat, in vivo, po, 10 mg/kg, Sprague-Dawley rats, following five daily PO doses of 10 mg/kg, read-out: peak plasma concentration (Cmax)) was 22800 ng/mL and the half-life ([1]; male, Sprague-Dawley, rat, in vivo, po, 10 mg/kg, Sprague-Dawley rats, following five daily PO doses of 10 mg/kg, read-out: terminal half-life (converted)) was 409 min. The AUC(0-inf) ([1]; male, Sprague-Dawley, rat, in vivo, po, 10 mg/kg, Sprague-Dawley rats, following five daily PO doses of 10 mg/kg, read-out: total systemic exposure (AUCinf)) was 308 µg·h/mL, the AUC(0-t) [1, 9] was 247 µg·h/mL and the MRT inf [1, 9] was 7.18 h. The Tmax [1, 9] was 2 h, the AUC(0-inf) ([1]; male, Sprague-Dawley, rat, in vivo, po, 10 mg/kg, male Sprague-Dawley rats, single PO 10 mg/kg dose, individual animals, read-out: AUCinf) was 255 µg·h/mL and the concentration at 24 h ([1]; male, Sprague-Dawley, rat, in vivo, po, 10 mg/kg, male Sprague-Dawley rats, single PO 10 mg/kg dose, individual animals, read-out: Clast) was 1330 ng/mL. It also gave a Cmax ([1]; male, Sprague-Dawley, rat, in vivo, po, 10 mg/kg, male Sprague-Dawley rats, single PO 10 mg/kg dose, individual animals, read-out: Cmax) of 25100 ng/mL, a half-life ([1]; male, Sprague-Dawley, rat, in vivo, po, 10 mg/kg, male Sprague-Dawley rats, single PO 10 mg/kg dose, individual animals, read-out: t1/2 (converted)) of 323 min and an AUC(0-t) [1, 10] of 262 µg·h/mL. It also gave a Tmax [1, 10] of 1.67 h, an AUC(0-inf) ([1]; male, Sprague-Dawley, rat, in vivo, po, 10 mg/kg, male Sprague-Dawley rats, single PO 10 mg/kg dose, mean (n = 3), read-out: AUCinf) of 272 µg·h/mL and a concentration at 24 h ([1]; male, Sprague-Dawley, rat, in vivo, po, 10 mg/kg, male Sprague-Dawley rats, single PO 10 mg/kg dose, mean (n = 3), read-out: Clast) of 1340 ng/mL. The Cmax ([1]; male, Sprague-Dawley, rat, in vivo, po, 10 mg/kg, male Sprague-Dawley rats, single PO 10 mg/kg dose, mean (n = 3), read-out: Cmax) was 22300 ng/mL, the half-life ([1]; male, Sprague-Dawley, rat, in vivo, po, 10 mg/kg, male Sprague-Dawley rats, single PO 10 mg/kg dose, mean (n = 3), read-out: t1/2 (converted)) was 307 min and the bioavailability ([1]; male, Sprague-Dawley, rat, in vivo, po, 10 mg/kg, male Sprague-Dawley rats, single PO 10 mg/kg) was 52.8%. It also gave a concentration at 24 h ([1]; male, Sprague-Dawley, rat, in vivo, po, 10 mg/kg, male Sprague-Dawley rats, single PO 10 mg/kg, at 24 hr, read-out: last measurable concentration) of 1340 ng/mL, a Cmax ([1]; male, Sprague-Dawley, rat, in vivo, po, 10 mg/kg, male Sprague-Dawley rats, single PO 10 mg/kg, read-out: peak plasma concentration (Cmax)) of 22300 ng/mL and a half-life ([1]; male, Sprague-Dawley, rat, in vivo, po, 10 mg/kg, male Sprague-Dawley rats, single PO 10 mg/kg, read-out: terminal half-life (t1/2) (converted)) of 307 min. The “time to peak plasma concentration” value ([2]; after five daily PO doses of 1 mg/kg) was at most 2 h, the AUCinf [2, 11] was 43537 ng·h/mL and 36277 ng·h/mL and the AUCinf/D [2, 11] was 49825 kg·h/kL and 43537 kg·h/kL and 36277 kg·h/kL. The AUClast [2, 11] was 40882 ng·h/mL and 34335 ng·h/mL.
